Here are results for 16 molecules from ChEMBL document CHEMBL1201862, “PubChem BioAssay data set” (2004).

Activity calls are given as the source filed them.

Test system in the first assay: not listed separately
The experiment in a line: inhibitors of HIV Env-driven cell fusion, dose response, cherry-pick (AID 652057). Type of assay: functional, cell-based.
Take `C[C@H]1CN([C@@H](C)CO)C(=O)c2ccccc2-c2ccccc2CO[C@H]1CN(C)Cc1cccc(F)c1`: the AC50 is < 0.26 µM (active).

Another assay deals with Cytochrome P450 2C9 (Homo sapiens, UniProt P11712).
Sequence of Cytochrome P450 2C9 (P11712 whole entry): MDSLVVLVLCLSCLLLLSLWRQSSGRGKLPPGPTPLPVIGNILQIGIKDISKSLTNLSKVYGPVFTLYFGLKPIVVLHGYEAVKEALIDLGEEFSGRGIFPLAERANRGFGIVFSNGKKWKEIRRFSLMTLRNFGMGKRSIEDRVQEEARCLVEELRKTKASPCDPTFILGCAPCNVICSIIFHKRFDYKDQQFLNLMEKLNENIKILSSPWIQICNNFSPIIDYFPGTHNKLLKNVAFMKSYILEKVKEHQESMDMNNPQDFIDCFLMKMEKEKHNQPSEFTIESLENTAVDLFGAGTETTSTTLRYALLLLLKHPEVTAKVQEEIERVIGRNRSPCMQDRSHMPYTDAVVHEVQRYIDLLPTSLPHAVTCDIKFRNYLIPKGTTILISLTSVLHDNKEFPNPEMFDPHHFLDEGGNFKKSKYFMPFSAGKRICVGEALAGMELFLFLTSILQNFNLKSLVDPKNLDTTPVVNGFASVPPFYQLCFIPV
On to `CCCCCC1=C2CNC(C)(C(=O)OC)C=C2C(C)C1=O` (stereo not given), for which the AC50 was 31.6 µM (inconclusive).

For another assay, the target named is T1, Protein skinhead-1 (Caenorhabditis elegans, UniProt P34707).
T1 sequence (P34707 whole entry): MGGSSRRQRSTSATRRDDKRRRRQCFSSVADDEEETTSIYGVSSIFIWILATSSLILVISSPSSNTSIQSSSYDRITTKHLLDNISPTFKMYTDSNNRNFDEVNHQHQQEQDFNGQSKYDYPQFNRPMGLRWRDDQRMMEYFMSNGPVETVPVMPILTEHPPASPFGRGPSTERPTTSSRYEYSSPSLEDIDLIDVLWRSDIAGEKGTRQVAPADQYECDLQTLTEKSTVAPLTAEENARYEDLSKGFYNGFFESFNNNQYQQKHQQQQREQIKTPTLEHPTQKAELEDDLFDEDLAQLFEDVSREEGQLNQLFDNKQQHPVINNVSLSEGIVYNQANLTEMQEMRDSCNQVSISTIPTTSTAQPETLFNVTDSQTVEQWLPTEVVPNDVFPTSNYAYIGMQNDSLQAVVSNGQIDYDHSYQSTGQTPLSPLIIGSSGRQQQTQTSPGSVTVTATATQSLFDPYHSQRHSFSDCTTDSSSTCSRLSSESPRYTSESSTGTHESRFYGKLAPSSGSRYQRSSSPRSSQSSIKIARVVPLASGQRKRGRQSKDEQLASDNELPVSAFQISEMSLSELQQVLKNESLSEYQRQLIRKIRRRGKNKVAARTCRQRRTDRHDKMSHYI
It is filed as functional.
As for `FC(F)(F)c1cccc(-c2nc(-c3ccncc3)no2)c1`, the IC50 is > 100 µM (inactive).

With `CCOc1ccc(NC(=O)C2CCCN(S(=O)(=O)c3c(C)nn(C)c3C)C2)cc1` (stereo not given), the IC50 is > 100 µM (inactive).

`COc1ccc(CN2CCCC(C(=O)c3cccc(Cl)c3)C2)cc1` (stereo not given): the IC50 was > 100 µM (inactive).

Regarding `Cc1ccc(CCNC(=O)c2coc3nc4ccccc4nc23)cc1`, the IC50 was > 100 µM (inactive).

As to `COCCN1C(=O)CC(NNC(=O)c2ccc(S(=O)(=O)N3CCCC3)cc2)C1=O` (stereo not given), the IC50 was > 100 µM (inactive).

Take `Cc1cccc2cc(C#N)c(N3CCCC3)nc12`: the IC50 is > 100 µM (inactive).

Take `COc1ccc(Cl)cc1C(=O)Nc1ccccc1N1CCCCC1`: the IC50 is > 100 µM (inactive).

`CN1CCC(N(C)CC(=O)Nc2ccccc2N2CCOCC2)CC1`: the IC50 was > 100 µM (inactive).

Turning to `CCSc1nnc(-c2ccc(Cl)cc2Cl)o1`, the IC50 is 29.7 µM (active).

On to `FC(F)(F)C1=CC(c2ccc(Cl)cc2)=NCCN1`, for which the IC50 is > 100 µM (inactive).

The next assay concerns the target T2, Cytochrome P450 1A2 (Homo sapiens, UniProt P05177).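 Note: PubChem cytochrome P450 panel assay, CYP1A2 panel member.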
T2 sequence (P05177 whole entry): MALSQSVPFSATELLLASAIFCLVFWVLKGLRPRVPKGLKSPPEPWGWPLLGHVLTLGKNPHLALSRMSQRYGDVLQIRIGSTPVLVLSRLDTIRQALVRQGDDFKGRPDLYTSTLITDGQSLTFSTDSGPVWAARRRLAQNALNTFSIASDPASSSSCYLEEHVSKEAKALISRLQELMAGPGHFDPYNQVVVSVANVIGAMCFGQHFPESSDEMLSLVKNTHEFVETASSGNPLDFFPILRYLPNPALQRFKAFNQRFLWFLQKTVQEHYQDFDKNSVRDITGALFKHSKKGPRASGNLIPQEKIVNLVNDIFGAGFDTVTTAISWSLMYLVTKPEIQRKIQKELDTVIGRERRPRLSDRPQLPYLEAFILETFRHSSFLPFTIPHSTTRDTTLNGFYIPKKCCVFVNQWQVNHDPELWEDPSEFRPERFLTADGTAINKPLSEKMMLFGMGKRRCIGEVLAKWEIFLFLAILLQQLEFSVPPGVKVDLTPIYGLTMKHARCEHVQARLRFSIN
Take `CCCCCC1=C2CNC(C)(C(=O)OC)C=C2C(C)C1=O` (stereo not given): the AC50 is 25.1 µM (inconclusive).

`CO[C@H]1C=C2CCN(C)[C@@H]2[C@@H]2c3cc4c(cc3C(=O)O[C@H]21)OCO4`: the AC50 is 12.6 µM (inconclusive).

Test system in another assay: not listed separately
As to the kind of experiment: inhibitors of clade B AD8 Env fusion, dose response, cell-based, cherry-pick (AID 652062).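 Note: luciferase signal from cell-cell fusion driven by HIV-1 clade B AD8 Env; potency is for inhibitors of fusion seen as a drop in luminescence.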 Type of assay: functional.
In the case of `C[C@H]1CN([C@@H](C)CO)C(=O)c2ccccc2-c2ccccc2CO[C@H]1CN(C)Cc1cccc(F)c1`, the concentration at half-maximal activity (AC50) is 0.416 µM (active).

In a further assay the target is Cytochrome P450 2D6 (Homo sapiens, UniProt P10635).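 Note: CYP2D6 member of a cytochrome P450 panel assay.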
Sequence of Cytochrome P450 2D6 (P10635 whole entry): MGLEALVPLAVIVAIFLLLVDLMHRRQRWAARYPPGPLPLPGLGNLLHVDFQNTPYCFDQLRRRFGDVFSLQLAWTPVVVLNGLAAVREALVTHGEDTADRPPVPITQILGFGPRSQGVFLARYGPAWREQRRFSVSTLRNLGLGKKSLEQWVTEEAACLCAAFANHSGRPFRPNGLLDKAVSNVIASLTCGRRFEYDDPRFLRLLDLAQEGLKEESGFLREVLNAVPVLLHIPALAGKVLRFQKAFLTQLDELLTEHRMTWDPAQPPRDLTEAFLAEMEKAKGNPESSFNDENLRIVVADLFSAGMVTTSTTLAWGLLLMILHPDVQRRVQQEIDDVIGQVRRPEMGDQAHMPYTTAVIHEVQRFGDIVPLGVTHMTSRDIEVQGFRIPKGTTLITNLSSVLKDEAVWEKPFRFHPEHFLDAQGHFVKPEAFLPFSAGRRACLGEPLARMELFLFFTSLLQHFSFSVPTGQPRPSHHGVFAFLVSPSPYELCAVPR
For `CCCCCC1=C2CNC(C)(C(=O)OC)C=C2C(C)C1=O` (stereo not given), the AC50 is 25.1 µM (inconclusive).

As for `CO[C@H]1C=C2CCN(C)[C@@H]2[C@@H]2c3cc4c(cc3C(=O)O[C@H]21)OCO4`, the AC50 is 10 µM (inconclusive).

For `COc1cnc(SCc2ccc(Cl)cc2)nc1Cl`, the AC50 is 17.8 µM (inconclusive).

For `O=C(c1ccc(COc2ccc(F)cc2)o1)n1cccn1`, the AC50 was 0.00562 µM (inconclusive).

Turning to `CC(C)CC1CC(=O)OC1(C)C(=O)CSc1nc2ccccc2s1` (stereo not given), the AC50 was 3.55 µM (inconclusive).
